From patent US20250332173A1, “COMPOUNDS AND METHODS FOR MODULATING NUCLEIC ACID SPLICING” (REMIX THERAPEUTICS INC., priority 2021, published 2025)
Where two headings read alike, the source gives them in different places.

Key:
SMN2 mRNA = assay: RT-qPCR splicing assay, SMN2 canonical junction (CJ) mRNA; format: cell-based, human; conditions: Homo sapiens; Table 5 panel; canonical junction qPCR; compound concentration having 50% response in CJ decrease; read-out: SMN2 IC50 (decrease in CJ mRNA levels)
Method: (§1) The expression of a target mRNA was measured by detecting the formation of an exon-exon junction in the canonical transcript (CJ). A compound mediated exon-inclusion event was detected by observing an increase in formation of a new junction with an alternative exon (AJ). Real-time qPCR assays were used to detect these splicing switches and interrogate the potency of various compounds towards different target genes. A high-throughput real time quantitative PCR (RT-qPCR) assay was developed to measure these two isoforms of the mRNA (CJ and AJ) for exemplary genes, such as HTT, SMN2, and MYB, together with a control housekeeping gene, GAPDH or GUSB or PPIA, used for normalization. Briefly, the A673 or K562 cell line was treated with various compounds described herein (e.g., compounds of Formula (I)). After treatment, the levels of the HTT, MYB, or SMN2 mRNA targets were determined from each sample of cell lysate by cDNA synthesis followed by qPCR.
(§2) The A673 cell line was cultured in DMEM with 10% FBS. Cells were diluted with full growth media and plated in a 96-well plate (15,000 cells in 100 ul media per well). The plate was incubated at 37° C. with 5% CO2 for 24 hours to allow cells to adhere. An 11-point 3-fold serial dilution of the compounds was made in DMSO then diluted in media in an intermediate plate. Compounds were transferred from the intermediate plate to the cell plate with the top dose at a final concentration of 10 uM in the well. Final DMSO concentration was kept at or below 0.25%. The cell plate was returned to the incubator at 37° C. with 5% CO2 for an additional 24 hours.
(§3) The K562 cell line was cultured in IMDM with 10% FBS. For K562, cells were diluted with full growth media and plated in either a 96-well plate (50,000 cells in 50 uL media per well) or a 384-well plate (8,000-40,000 cells in 45 uL media per well). An 11-point 3-fold serial dilution of the compounds were made in DMSO then diluted in media in an intermediate plate. Compound was transferred from the intermediate plate to the cell plate with the top dose at a final concentration of 10 uM in the well. Final DMSO concentration was kept at or below 0.25%. Final volume was 100 uL for 96-well plate and 50 uL for 384-well plate. The cell plate was then placed in an incubator at 37° C. with 5% CO2 for 24 hours.
(§4) The cells were then gently washed with 50 uL-100 uL cold PBS before proceeding to addition of lysis buffer. 30 uL-50 uL of room temperature lysis buffer with DNAse I (and optionally RNAsin) was added to each well. Cells were shaken/mixed thoroughly at room temperature for 5-10 minutes for lysis to take place and then 3 uL-5 uL of room temperature stop solution was added and wells were shaken/mixed again. After 2-5 minutes, the cell lysate plate was transferred to ice for RT-qPCR reaction setup. The lysates could also be frozen at −80° C. for later use.
(§5) In some cases, a direct lysis buffer was used. An appropriate volume of 3× lysis buffer (10 mM Tris, 150 mM NaCl, 1.5%-2.5% Igepal and 0.1-1 U/uL RNAsin, pH 7.4) was directly added to either K562 or A673 cells in media and mixed by pipetting 3 times. The plates were then incubated at room temperature with shaking/rocking for 20-50 minutes to allow for lysis to take place. After this time, the cell lysate plate was transferred to ice to set up for the RT-qPCR reactions. The lysates could also be frozen at −80° C. for later use.
(§6) To set up 10 uL RT-qPCR reactions, cell lysates were transferred to 384-well qPCR plates containing the master mix according to the table below. The plates were sealed, gently vortexed, and spun down before the run. The volumes were adjusted accordingly in some instances where the reaction was carried in 20 uL. The table below summarizes the components of the RT-qPCR reactions:
(§7) The RT-qPCR reaction was performed using a QuantStudio (ThermoFisher) under the following fast cycling conditions.

HTT mRNA = assay: RT-qPCR splicing assay, HTT canonical junction (CJ) and alternative junction (AJ) mRNA; format: cell-based, human; conditions: Homo sapiens; for AC50: increase in HTT alternative junction (AJ) mRNA, read-out: HTT AJ AC50
Method: as §1
(§8) • Cells-to-CT 1-step kit: ThermoFisher A25602, Cells-to-CT lysis reagent: ThermoFisher 4391851C, TaqMan™ Fast Virus 1-Step Master Mix: ThermoFisher 4444436 • GAPDH: VIC-PL, ThermoFisher 4326317E (Assay: Hs99999905_m1)—used for K562/suspension cell lines • GUSB: VIC-PL, ThermoFisher 4326320E (Assay: Hs99999908_m1)—used for K562/suspension cell lines • PPIA: VIC-PL, ThermoFisher 4326316E (Assay: Hs99999904_m1)—used for A673/adherent cell lines
as §2, §3, §4, §5

Target C = assay: RT-qPCR splicing assay panel, Target C canonical junction (CJ) mRNA; format: cell-based, human; conditions: Homo sapiens
Method: as §1, §2, §3, §4, §5, §6, §7

MYB mRNA = assay: RT-qPCR splicing assay, MYB canonical junction (CJ) and alternative junction (AJ) mRNA; format: cell-based, human; conditions: Homo sapiens; for AC50: increase in MYB alternative junction (AJ) mRNA, read-out: MYB AJ AC50
Method: as §1, §8, §2, §3, §4, §5

[1] = system: K562 (human chronic myelogenous leukemia) cells; assay: Cell Titer Glo 2.0 cell viability assay; format: cell-based; conditions: Homo sapiens, K562, 72 h, K562 cells, 72 hours, Cell Titer Glo 2.0; read-out: K562 GI50
[2] = decrease in HTT canonical junction (CJ) mRNA, RT-qPCR, read-out: HTT CJ IC50
[3] = Table 5 panel, canonical junction qPCR, compound concentration having 50% response in CJ decrease, read-out: HTT IC50 (decrease in CJ mRNA levels)
[4] = Table 5 panel, canonical junction qPCR, compound concentration having 50% response in CJ decrease, read-out: Target C IC50 (decrease in CJ mRNA levels)
[5] = Table 5 panel, canonical junction qPCR, compound concentration having 50% response in CJ decrease, read-out: MYB IC50 (decrease in CJ mRNA levels)
[6] = decrease in MYB canonical junction (CJ) mRNA, RT-qPCR, read-out: MYB CJ IC50
[7] = canonical junction qPCR panel, Table 5, read-out: HTT (decrease in CJ mRNA levels, IC50)
[8] = canonical junction qPCR panel, Table 5, read-out: Target C (decrease in CJ mRNA levels, IC50)
[9] = canonical junction qPCR panel, Table 5, read-out: MYB (decrease in CJ mRNA levels, IC50)

SMILES	IC50 (SMN2 mRNA)	IC50 (HTT mRNA; [2])	AC50 (HTT mRNA; RT-qPCR)	IC50 (HTT mRNA; [3])	IC50 (Target C; [4])	IC50 (MYB mRNA; [5])	IC50 (MYB mRNA; [6])	AC50 (MYB mRNA; RT-qPCR)	IC50 (HTT mRNA; [7])	IC50 (Target C; [8])	GI50 [1]	IC50 (MYB mRNA; [9])
CNCCn1ncc2cc(-c3cc(C)c4nc(C)cn4n3)ccc2c1=O [Compound 472]	< 100 nM	100 to 1000 nM	100 to 1000 nM	100 to 1000 nM	100 to 1000 nM	100 to 1000 nM	100 to 1000 nM	100 to 1000 nM	–	–	–	–
Cc1cn2cc(-c3ccc4c(=O)n([C@H]5CCNC6(CC6)C5)ccc4n3)cc(F)c2n1 [Compound 1511]	–	100 to 1000 nM	100 to 1000 nM	–	–	–	100 to 1000 nM	100 to 1000 nM	100 to 1000 nM	100 to 1000 nM	100 to 1000 nM	100 to 1000 nM
Cc1cn2nc(-c3ccc4c(=O)n([C@@H]5CCNC6(CC6)C5)ccc4n3)cc(C)c2n1 [Compound 1505, 6-[(7R)-4-azaspiro[2.5]octan-7-yl]-2-(2,8-dimethylimidazo[1,2-b]pyridazin-6-yl)-1,6-naphthyridin-5-one]	–	100 to 1000 nM	100 to 1000 nM	–	–	–	100 to 1000 nM	100 to 1000 nM	100 to 1000 nM	100 to 1000 nM	1000 to 10000 nM	100 to 1000 nM
Cc1c(O)c(-c2ncc3c(=O)n([C@@H]4CCNC5(CC5)C4)ccc3n2)cc2cn(C)nc12 [Compound 1513]	–	1000 to 10000 nM	100 to 1000 nM	–	–	–	100 to 1000 nM	100 to 1000 nM	100 to 1000 nM	1000 to 10000 nM	100 to 1000 nM	100 to 1000 nM
Cc1cn2nc(-c3ccc4c(c3)CCN(C3CCNCC3)C4=O)cc(C)c2n1 [Compound 185]	100 to 1000 nM	1000 to 10000 nM	100 to 1000 nM	100 to 1000 nM	–	1000 to 10000 nM	1000 to 10000 nM	1000 to 10000 nM	–	–	–	–
Cc1cc(-c2ccc3nc(N4CCN(C)CC4)[nH]c(=O)c3c2)cc2cn(C)nc12 [Compound 165]	100 to 1000 nM	> 10000 nM	> 10000 nM	> 10000 nM	–	–	–	–	–	–	–	–
Cc1cn2nc(-c3cc(C)c4c(=O)n(C5CCNC6(CC6)C5)ncc4n3)cc(C)c2n1 (centres unmarked) [Compound 1552, 6-(4-azaspiro[2.5]octan-7-yl)-2-(2,8-dimethylimidazo[1,2-b]pyridazin-6-yl)-4-methyl-pyrido[2,3-d]pyridazin-5-one]	–	100 to 1000 nM	100 to 1000 nM	–	–	–	100 to 1000 nM	100 to 1000 nM	100 to 1000 nM	100 to 1000 nM	100 to 1000 nM	100 to 1000 nM
Cc1cn2cc(-c3ccc4c(=O)n(C5CCNCC5)ncc4c3)nc2c(C)n1 [Compound 258]	–	> 10000 nM	1000 to 10000 nM	–	–	–	–	–	–	–	–	–
Cc1c(O)c(-c2ccc3c(=O)n([C@H]4CCNC5(CC5)C4)ccc3n2)cc2cn(C)nc12 [Compound 1508, 6-[(7S)-4-azaspiro[2.5]octan-7-yl]-2-(6-hydroxy-2,7-dimethyl-indazol-5-yl)-1,6-naphthyridin-5-one]	–	< 100 nM	< 100 nM	–	–	–	< 100 nM	< 100 nM	< 100 nM	< 100 nM	< 100 nM	< 100 nM
Cc1c(O)c(-c2nc(C)c3c(=O)n([C@H]4CCNC5(CC5)C4)ccc3n2)cc2cn(C)nc12 [Compound 1514, 6-[(7S)-4-azaspiro[2.5]octan-7-yl]-2-(6-hydroxy-2,7-dimethyl-indazol-5-yl)-4-methyl-pyrido[4,3-d]pyrimidin-5-one]	–	1000 to 10000 nM	> 10000 nM	–	–	–	100 to 1000 nM	100 to 1000 nM	> 10000 nM	1000 to 10000 nM	100 to 1000 nM	100 to 1000 nM
Cc1cn2nc(-c3ccc4c(=O)n([C@H]5CCN[C@H](C)C5)ncc4c3)cc(C)c2n1 [Compound 273]	–	100 to 1000 nM	< 100 nM	< 100 nM	100 to 1000 nM	–	–	–	–	–	–	–
Cc1cn2cc(-c3ccc4c(=O)n([C@@H]5CCNC6(CC6)C5)ccc4n3)cc(F)c2n1 [Compound 1510]	–	1000 to 10000 nM	100 to 1000 nM	–	–	–	1000 to 10000 nM	100 to 1000 nM	100 to 1000 nM	1000 to 10000 nM	100 to 1000 nM	100 to 1000 nM
Cc1c(O)c(-c2nc(C)c3c(=O)n(C4C[C@H](C)N[C@@H](C)C4)ccc3n2)cc2cn(C)nc12 (some centres unmarked) [Compound 1516]	–	1000 to 10000 nM	1000 to 10000 nM	–	–	–	100 to 1000 nM	100 to 1000 nM	1000 to 10000 nM	> 10000 nM	100 to 1000 nM	100 to 1000 nM
Cc1cn2nc(-c3ccc4c(=O)n([C@H]5CCNC6(CC6)C5)ccc4n3)cc(C)c2n1 [Compound 1506, 6-[(7S)-4-azaspiro[2.5]octan-7-yl]-2-(2,8-dimethylimidazo[1,2-b]pyridazin-6-yl)-1,6-naphthyridin-5-one]	–	< 100 nM	< 100 nM	–	–	–	< 100 nM	100 to 1000 nM	< 100 nM	100 to 1000 nM	100 to 1000 nM	100 to 1000 nM
Cc1c(O)c(-c2ccc3c(=O)n([C@@H]4CCNC5(CC5)C4)ccc3n2)cc2cn(C)nc12 [Compound 1509, 6-[(7R)-4-azaspiro[2.5]octan-7-yl]-2-(6-hydroxy-2,7-dimethyl-indazol-5-yl)-1,6-naphthyridin-5-one]	–	100 to 1000 nM	100 to 1000 nM	–	–	–	100 to 1000 nM	< 100 nM	100 to 1000 nM	100 to 1000 nM	100 to 1000 nM	< 100 nM
C[C@H]1C[C@@H](n2ccc3nc(-c4cc(F)c5nn(C)cc5c4)ccc3c2=O)CCN1 [Compound 1507]	–	100 to 1000 nM	100 to 1000 nM	–	–	–	100 to 1000 nM	100 to 1000 nM	100 to 1000 nM	1000 to 10000 nM	100 to 1000 nM	100 to 1000 nM
CC[C@@H]1C[C@@H](n2ncc3cc(-c4cc(C)c5nc(C)cn5n4)ccc3c2=O)CCN1 [Compound 305]	–	1000 to 10000 nM	100 to 1000 nM	100 to 1000 nM	100 to 1000 nM	–	–	–	–	–	–	–
Cc1cn2nc(-c3ccc4c(=O)n(C5CCOCC5)ncc4c3)cc(C)c2n1 [Compound 275]	–	–	–	> 10000 nM	> 10000 nM	–	–	–	–	–	–	–
